Broadly, the IC50 is the midpoint of a concentration-inhibition curve.

Like-named read-outs stand apart in the source and are kept apart here.

The assay concerns IL-15 induced P-STAT5 in human PBMC (total lymphocytes). The assay can be described thus: PBMC IL-15 Induced P-STAT5. Type of assay: cell-based. Conditions: IL-15 stimulated, read-out: PBMC IL15-pSTAT5 IC50. Here is the method:
PBMC IL-15 Induced P-STAT5
Frozen human PBMC (200-250 million cells/vial) was thawed at 37° C. The cells were transferred to 10 mL warm medium in a 50-mL conical tube, and centrifuged at 1,200 RPM at room temperature for 5 min. The supernatant was aspirated. […] After adding 47 ml D-PBS (37° C.) to PBMC/FBS suspension, centrifuging at 1,200 RPM at room temperature for 5 min, and aspirating the supernatant, the cells were resuspended in 20 mL warm RPMI medium. Ninety μL of cell suspension were pipetted per well in a 96-well, deep-well, V-bottom plate, and the plate was incubated at 37° C. for 30 min. […] After adding 0.8 mL staining buffer per well, the plates were centrifuged at 1,200 RPM (Beckman GS-6R or Sorvall Legend) at room temperature for 5 min, and again the supernatant was aspirated using a 8-channel or 12-channel manifold. The plate was vortexed, and 0.35 mL 90% methanol/10% H2O (−20° C.) was added per well, and the plate incubated on ice for 20 min. After again adding 0.8 mL staining buffer per well, the plates were centrifuged at 1,200 RPM (Beckman GS-6R or Sorvall Legend) at room temperature for 5 min, and again the supernatant was aspirated using a 8-channel or 12-channel manifold, and then 0.8 mL Staining buffer was added per well. After once again adding 0.8 mL staining buffer per well, the plates were centrifuged at 1,200 RPM (Beckman GS-6R or Sorvall Legend) at room temperature for 5 min, and again the supernatant was aspirated using a 8-channel or 12-channel manifold. […] Samples of 250 μL/well were transferred to a 96-well U-bottom plate, and the FACS analysis was performed gating on total lymphocytes. Samples were analyzed using a BD Calibur™ or BD FACSCanto™ flow cytometer equipped with the BD High Throughput Sampler.

For the compound `C=CC(=O)N1CC[C@H]2CCN(c3ncnc4[nH]ccc34)[C@H]2C1` (racemic) [Example 21, rac-1-((3aR,7aR)-1-(7H-Pyrrolo[2,3-d]pyrimidin-4-yl)hexahydro-1H-pyrrolo[2,3-c]pyridin-6(2H)-yl)prop-2-en-1-one], under “Homo sapiens, PBMC”, the half-inhibitory concentration (IC50) was found to be 236 nM.
With `C=CC(=O)N1C[C@H](C)C[C@@H](Nc2ncnc3[nH]ccc23)C1` (racemic) [Example 65, Rac-1-((3R,5R)-3-((7H-Pyrrolo[2,3-d]pyrimidin-4-yl)amino)-5-methylpiperidin-1-yl)prop-2-en-1-one], the half-inhibitory concentration (IC50) came to 3740 nM.
Turning to `C=CC(=O)N1C[C@H](Nc2ncnc3[nH]ccc23)CC[C@@H]1C` [Example 5, 1-((2S,5R)-5-((7H-pyrrolo[2,3-d]pyrimidin-4-yl)amino)-2-methylpiperidin-1-yl)prop-2-en-1-one], the half-inhibitory concentration (IC50) is 51.7 nM.
On the same count and under the same terms, next, `C=CC(=O)N1CCC[C@@H](Nc2ncnc3[nH]cc(CC#N)c23)C1` [Example 20, (R)-2-(4-((1-Acryloylpiperidin-3-yl)amino)-7H-pyrrolo[2,3-d]pyrimidin-5-yl)acetonitrile]: 362 nM; `C=CC(=O)N1CCC[C@@H](Nc2ncnc3[nH]cc(-c4cncc(F)c4)c23)C1` [Example 23, 1-[(3R)-3-{[5-(5-fluoropyridin-3-yl)-7H-pyrrolo[2,3-d]pyrimidin-4-yl]amino}piperidin-1-yl]prop-2-en-1-one]: 188 nM.
For `C=CC(=O)N1CCC[C@@H](Nc2ncnc3[nH]cc(-c4cncc(OC)c4)c23)C1` [Example 24, 1-[(3R)-3-{[5-(5-methoxypyridin-3-yl)-7H-pyrrolo[2,3-d]pyrimidin-4-yl]amino}piperidin-1-yl]prop-2-en-1-one], the concentration for half-maximal inhibition (IC50) is 320 nM.
Same read-out and setting: next, `C=CC(=O)N1CCC[C@@H](Nc2ncnc3[nH]cc(-c4ccccc4O)c23)C1` [Example 25, 1-[(3R)-3-{[5-(2-hydroxyphenyl)-7H-pyrrolo[2,3-d]pyrimidin-4-yl]amino}piperidin-1-yl]prop-2-en-1-one]: 84 nM.
Turning to `C=CC(=O)N1CCC[C@@H](Nc2ncnc3[nH]cc(-c4cccnc4)c23)C1` [Example 26, 1-[(3R)-3-{[5-(pyridin-3-yl)-7H-pyrrolo[2,3-d]pyrimidin-4-yl]amino}piperidin-1-yl]prop-2-en-1-one], the IC50 (Homo sapiens, PBMC) is 254 nM.
As for `C=CC(=O)N1CCC[C@@H](Nc2ncnc3[nH]cc(-c4ccc(C(=O)N(C)C)cc4)c23)C1` [Example 27, 4-(4-{[(3R)-1-acryloylpiperidin-3-yl]amino}-7H-pyrrolo[2,3-d]pyrimidin-5-yl)-N,N-dimethylbenzamide], under “Homo sapiens, PBMC”, the IC50 was 1870 nM.
Regarding `C=CC(=O)N1CCC[C@@H](Nc2ncnc3[nH]cc(-c4ccc(C(=O)NC(C)C)cc4)c23)C1` [Example 29, 4-(4-{[(3R)-1-acryloylpiperidin-3-yl]amino}-7H-pyrrolo[2,3-d]pyrimidin-5-yl)-N-(propan-2-yl)benzamide], the IC50 is 464 nM.
Regarding `C=C(C(=O)N1CC[C@@H]2CCN(c3ncnc4[nH]ccc34)[C@@H]2C1)C(F)(F)F` [Example 41, 1-((3aS,7aS)-1-(7H-Pyrrolo[2,3-d]pyrimidin-4-yl)hexahydro-1H-pyrrolo[2,3-c]pyridin-6(2H)-yl)-2-(trifluoromethyl)prop-2-en-1-one], the concentration for half-maximal inhibition (IC50) (Homo sapiens, PBMC) was 446 nM.
On to `C#Cc1c[nH]c2ncnc(N3CC[C@H]4CCN(C(=O)C=C)C[C@H]43)c12` [Example 48, 1-[(3aS,7aS)-1-(5-ethynyl-7H-pyrrolo[2,3-d]pyrimidin-4-yl)octahydro-6H-pyrrolo[2,3-c]pyridin-6-yl]prop-2-en-1-one], for which the IC50 (Homo sapiens, PBMC) came to 65.2 nM.
For the compound `C=CC(=O)N1CCC[C@@H](Nc2ncnc3[nH]cc(CCO)c23)C1` [Example 55, (R)-1-(3-((5-(2-Hydroxyethyl)-7H-pyrrolo[2,3-d]pyrimidin-4-yl)amino)piperidin-1-yl)prop-2-en-1-one], the concentration for half-maximal inhibition (IC50) came to 430 nM.
`C=CC(=O)N1CCC[C@@H](Nc2nc(Nc3cccnc3)nc3[nH]ccc23)C1` [Example 63, 1-[(3R)-3-{[2-(Pyridin-3-ylamino)-7H-pyrrolo[2,3-d]pyrimidin-4-yl]amino}piperidin-1-yl]prop-2-en-1-one]: under “Homo sapiens, PBMC”, the IC50 came to 1380 nM.
Same read-out and setting: then `C=CC(=O)N1CC(Nc2ncnc3[nH]ccc23)CCC1(C)C` (stereo not drawn) [Example 67, 1-(5-((7H-Pyrrolo[2,3-d]pyrimidin-4-yl)amino)-2,2-dimethylpiperidin-1-yl)prop-2-en-1-one], with 6900 nM; and `C=CC(=O)N1CCC[C@](C)(Nc2ncnc3[nH]ccc23)C1` [Example 70, (S)-1-(3-((7H-Pyrrolo[2,3-d]pyrimidin-4-yl)amino)-3-methylpiperidin-1-yl)prop-2-en-1-one], with 5530 nM.
With `C=CC(=O)N1C[C@H](Nc2ncnc3[nH]ccc23)C[C@@H](OC)C1` [Example 77, 1-[(3R,5R)-3-Methoxy-5-(7H-pyrrolo[2,3-d]pyrimidin-4-ylamino)piperidin-1-yl]prop-2-en-1-one], the IC50 worked out at 3970 nM.
On to `C=CC(=O)N1C[C@H](Nc2ncnc3[nH]cc(C(N)=O)c23)CC[C@@H]1C` [Example 164, 4-{[(3R,6S)-1-Acryloyl-6-methylpiperidin-3-yl]amino}-7H-pyrrolo[2,3-d]pyrimidine-5-carboxamide], for which the IC50 was 1650 nM.
With `C=CC(=O)N1CC[C@@H]2CN(c3cnc4[nH]cc(C(=O)NC(C)C)c4n3)C[C@@H]21` [Example 170, 2-[(3aR,6aR)-1-acryloylhexahydropyrrolo[3,4-b]pyrrol-5(1H)-yl]-N-(propan-2-yl)-5H-pyrrolo[2,3-b]pyrazine-7-carboxamide], the IC50 (Homo sapiens, PBMC) turned out to be 1370 nM.
The same measure, in the same setting: next, `C=CC(=O)N[C@H]1C[C@@H](Nc2cnc3[nH]cc(C(=O)NC(C)C)c3n2)C1` [Example 184, 2-{[cis-3-(acryloylamino)cyclobutyl]amino}-N-(propan-2-yl)-5H-pyrrolo[2,3-b]pyrazine-7-carboxamide]: 3410 nM; `C=CC(=O)N(C)C1CN(c2cnc3[nH]cc(C(=O)NC(C)C)c3n2)C1` [Example 187, 2-{3-[acryloyl(methyl)amino]azetidin-1-yl}-N-(propan-2-yl)-5H-pyrrolo[2,3-b]pyrazine-7-carboxamide]: 710 nM.
For the compound `C=CC(=O)N1C[C@@H]2C(Nc3cnc4[nH]cc(C(=O)NC(C)C)c4n3)[C@@H]2C1` (stereo partly drawn) [Example 189, 2-{[(1R,5S,6s)-3-acryloyl-3-azabicyclo[3.1.0]hex-6-yl]amino}-N-(propan-2-yl)-5H-pyrrolo[2,3-b]pyrazine-7-carboxamide], the IC50 turned out to be 1740 nM.
Regarding `C=CC(=O)N[C@H]1C[C@H](Nc2cnc3[nH]cc(C(=O)NC(C)C)c3n2)C1` [Example 198, 2-{[trans-3-(acryloylamino)cyclobutyl]amino}-N-(propan-2-yl)-5H-pyrrolo[2,3-b]pyrazine-7-carboxamide], where the note is “Homo sapiens, PBMC”, the IC50 was 1170 nM.
Still for that read-out and setting: then `C=CC(=O)N1CCC(Nc2cnc3[nH]cc(-c4ccc(C)nc4)c3n2)CC1` [Example 199, 1-(4-{[7-(6-methylpyridin-3-yl)-5H-pyrrolo[2,3-b]pyrazin-2-yl]amino}piperidin-1-yl)prop-2-en-1-one], with 735 nM.
Regarding `C=CC(=O)N1CCC(Nc2cnc3[nH]cc(-c4ccncc4F)c3n2)CC1` [Example 200, 1-(4-{[7-(3-fluoropyridin-4-yl)-5H-pyrrolo[2,3-b]pyrazin-2-yl]amino}piperidin-1-yl)prop-2-en-1-one], the IC50 came out at 819 nM.
With `C=CC(=O)N1CCC(Nc2cnc3[nH]cc(-c4ccc(S(C)(=O)=O)cc4)c3n2)CC1` [Example 203, 1-[4-({7-[4-(methylsulfonyl)phenyl]-5H-pyrrolo[2,3-b]pyrazin-2-yl}amino)piperidin-1-yl]prop-2-en-1-one], the 50% inhibitory concentration (IC50) turned out to be 1180 nM.
In the case of `C=CC(=O)N1CCC(Nc2cnc3[nH]cc(-c4cccc(C(=O)NC)c4)c3n2)CC1` [Example 204, 3-{2-[(1-acryloylpiperidin-4-yl)amino]-5H-pyrrolo[2,3-b]pyrazin-7-yl}-N-methylbenzamide], the IC50 came to 855 nM.
On the same count and under the same terms, next, `C=CC(=O)N1CCC(Nc2cnc3[nH]cc(-c4cncc(C#N)c4)c3n2)CC1` [Example 206, 5-{2-[(1-acryloylpiperidin-4-yl)amino]-5H-pyrrolo[2,3-b]pyrazin-7-yl}pyridine-3-carbonitrile]: 163 nM; `C=CC(=O)N1CCC(Oc2cnc3[nH]cc(-c4cncc(F)c4)c3n2)CC1` [Example 213, 1-(4-{[7-(5-fluoropyridin-3-yl)-5H-pyrrolo[2,3-b]pyrazin-2-yl]oxy}piperidin-1-yl)prop-2-en-1-one]: 318 nM.
As to `C=CC(=O)N1CCC(Oc2cnc3[nH]cc(-c4ccc(C)nc4)c3n2)CC1` [Example 214, 1-(4-{[7-(6-methylpyridin-3-yl)-5H-pyrrolo[2,3-b]pyrazin-2-yl]oxy}piperidin-1-yl)prop-2-en-1-one], the IC50 was 1110 nM.

For the origin of these results see patent US11111242B2, “Pyrrolo[2,3-d]pyrimidinyl, pyrrolo[2,3-b]pyrazinyl and pyrrolo[2,3-d]pyridinyl acrylamides” (Pfizer Inc., priority 2013, dated 2021).
